The nature of data set [1]: Cytotoxicity against human HepDE19 cells. The data set is classed as toxicity, cell-based.
Data set [2] is described as follows: Antiviral activity against HBV infected in SRluc-HBc6 cells. The data set is classed as functional, cell-based. The conditions noted are these: Hepatitis B virus.
The nature of data set [3]: Cytotoxicity against SRluc-HBc6 cells (unknown origin). The data set is classed as functional.
Data set [4] can be described thus: Cytotoxicity against human HePAD38 cells assessed as reduction in cell viability by XTT assay. The data set is classed as functional.
For data set [5], the system named is Hepatitis B virus. In words: Antiviral activity against Hepatitis B virus infected in human HePAD38 cells assessed as inhibition of viral DNA replication by qPCR analysis. It is filed as functional, organism-based.
Data set [6] concerns Hepatitis B virus. In words: Antiviral activity against Hepatitis B virus infected in HepDE19 cells assessed as inhibition of viral replication. The data set is classed as functional, organism-based.
Data set [7] deals with Hepatitis B virus. In words: Antiviral activity against HBV infected in human HePAD38 cells assessed as reduction in intracellular core HBV DNA replication by Southern blot analysis. The data set is classed as functional, organism-based.
Data set [8] is described as follows: Cytotoxicity against human HePAD38 cells assessed as reduction in cell viability incubated for 72 hrs by MTT assay. It is filed as functional.
Data set [9] has as its system HepG2. In words: Cytotoxicity against human HepG2 cells by XTT assay. It is filed as functional.
For data set [10], the system named is Hepatitis B virus. The data set is described as follows: Antiviral activity against Hepatitis B virus assessed as inhibition of HbsAg level.
In data set [11] the test system is Hepatitis B virus. In words: Antiviral activity against Hepatitis B virus assessed as inhibition of HbeAg level.
Data set [12] has as its system HepG2. The data set is described as follows: Cytotoxicity against human HepG2 cells assessed as reduction in cell viability incubated for 24 hrs by CCK-8 assay. The data set is classed as functional.
The test system of data set [13] is Hepatitis B virus. In words: Antiviral activity against HBV infected in human HepG2 cells assessed as reduction in viral DNA replication. It is filed as functional, organism-based.
Data set [14] deals with Hepatitis B virus. In words: Antiviral activity against HBV infected in human HepG2-hNTCP cells assessed as inhibition of HBsAg formation. The data set is classed as functional, organism-based.
For data set [15], the system named is HepG2. The data set is described as follows: Cytotoxicity against human HepG2 cells assessed as reduction in cell growth. The data set is classed as functional.

As for `Cc1nc2cc(NC(=O)c3ccc(S(=O)(=O)N(C)Cc4ccccc4)cc3)ccc2s1`, in data set [1], the CC50 came to 2.57 µM.

Regarding `O=C(CN(c1cc(C(F)(F)F)ccc1Cl)S(=O)(=O)c1ccccc1)NCc1ccncc1`, the CC50 in data set [1] was more than 50 µM.

`CC1=C[C@@H]2C(=O)[C@]3(C=C(C)[C@H](O)[C@@]3(O)[C@@H]1O)[C@H](C)C[C@@H]1[C@H]2C1(C)C`: in [2], a half-maximal effect (EC50) was put at 8.9 µM. Besides, in data set [3], the CC50 is more than 100 µM.

For `Cc1c(C(=O)Nc2ccccc2)sc(N)c1C(N)=O`, the CC50 in data set [4] is more than 300 µM. Besides, in the data set with Hepatitis B virus [5], the EC50 was found to be 3.6 µM.

Regarding `O=C(O)C1CC(OCCOc2ccc(-c3cc(=O)c4cccc(Cl)c4o3)cc2)C1` (configuration not stated), the EC50 in the data set with Hepatitis B virus [6] worked out at 0.1 µM. In [1], this molecule returned a CC50 of 0.2 µM.

As for `NC(=O)c1ccc(N)nc1` [6-AMINONICOTINAMIDE], the EC50 with Hepatitis B virus [7] came to 23.9 µM. Moreover, the CC50 in data set [8] was more than 500 µM.

The molecule `Cc1cc(C2CCCCC2)n(O)c(=O)c1` [CICLOPIROX] showed a CC50 in the data set with HepG2 [9] of more than 10 µM. In the data set with Hepatitis B virus [5], the EC50 amounted to 0.88 µM.

As to `C/C=C/C[C@@H](C)[C@@H](O)[C@H]1C(=O)N[C@@H](CC)C(=O)N(C)CC(=O)N(C)[C@@H](CC(C)C)C(=O)N[C@@H](C(C)C)C(=O)N(C)[C@@H](CC(C)C)C(=O)N[C@@H](C)C(=O)N[C@H](C)C(=O)N(C)[C@@H](CC(C)C)C(=O)N(C)[C@@H](CC(C)C)C(=O)N(C)[C@@H](C(C)C)C(=O)N1C` [CYCLOSPORINE], the 50% inhibitory concentration (IC50) in the data set with Hepatitis B virus [10] stood at 0.372 µM; in the data set on Hepatitis B virus [11], 0.311 µM.

In the case of `O=c1oc2ccccc2c(O)c1Cc1c(O)c2ccccc2oc1=O` [DICUMAROL], the CC50 in the data set with HepG2 [12] was more than 800 µM. Moreover, the EC50 in the data set with Hepatitis B virus [13] is 100 µM.

Turning to `CCCCC1=NC2(CCCC2)C(=O)N1Cc1ccc(-c2ccccc2-c2nnn[nH]2)cc1` [IRBESARTAN], the EC50 in the data set with Hepatitis B virus [14] came to 35 µM. Besides, the CC50 in the data set with HepG2 [15] is 287 µM.

For the molecule `CC(=O)Oc1ccccc1C(=O)Nc1ncc([N+](=O)[O-])s1` [NITAZOXANIDE], in the data set on HepG2 [12], the CC50 is 57 µM. The EC50 in the data set on Hepatitis B virus [13] was less than 10 µM.

In data set [2], `CCOC(=O)c1c(CSc2ccccc2)n(C)c2cc(Br)c(O)c(CN(C)C)c12` [UMIFENOVIR] displayed an EC50 of 2.3 µM. Half-maximal cytotoxicity in data set [3] (CC50) was put at 58.4 µM.
